Data taken from the supplement of paper PMC10627819.

How the values were obtained:
B. subtilis 168 [1] = test: fitness (endpoint OD595 vs no drug) (fraction); higher = more growth
Outline: (§1)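 In 384-well plates at 37 °C, cultures began at OD595 0.01 in 30 µl, with 55 µl used for S. pneumoniae. OD595 readings every 30 min for 14 h were corrected by the first reading. Fitness divides the stationary-phase transition optical density by the robust mean of no-drug control wells. The result is capped at 1.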

S. aureus Newman [2] = test: as above
Outline: as §1

S. aureus DSM 20231 [3] = test: as above
Outline: as §1

S. pneumoniae D39V [4] = test: as above
Outline: as §1

B. subtilis 168 [5] = test: Bliss interaction score (quartile over a dose matrix) (fitness difference); higher = more antagonism (negative = synergy)
Outline: (§2)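 The Bliss score takes observed fitness and subtracts the expected fitness, calculated as a product of single-drug fitness values. Those single-drug values were inferred from the combination data. Fitness is OD595 at entry into stationary phase divided by the plate's robust no-drug mean, capped at 1, and the score is summarised by quartiles across technical, biological and donor/recipient replicates.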

S. aureus Newman [6] = test: as above
Outline: as §2

S. aureus DSM 20231 [7] = test: as above
Outline: as §2

S. pneumoniae D39V [8] = test: as above
Outline: as §2
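Throughout, for Bliss interaction score (quartile over a dose matrix): first quartile when negative (synergy) and third quartile when positive (antagonism).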
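Throughout, for fitness (endpoint OD595 vs no drug): OD595 on entry to stationary phase over no-drug wells; at most 1.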

COc1ccc(C[C@H](N)C(=O)N[C@H]2[C@@H](O)[C@H](n3cnc4c(N(C)C)ncnc43)O[C@@H]2CO)cc1 [Puromycin] + CN1C2=CC=CC=C2N=C3C1=CC=CC3=O [Pyocyanin]
fitness
Settings | first compound 0.39 µg/mL | first compound 0.78 µg/mL | first compound 1 µg/mL | first compound 1.56 µg/mL | first compound 2 µg/mL | first compound 4 µg/mL
B. subtilis 168 [1], partner 1.25 µg/mL | 0.879 | 0.847 | – | 0.89 | – | –
B. subtilis 168 [1], partner 2.5 µg/mL | 0.875 | 0.812 | – | 0.823 | – | –
B. subtilis 168 [1], partner 5 µg/mL | 0.679 | 0.666 | – | 0.656 | – | –
S. aureus DSM 20231 [3], partner 1.25 µg/mL | 0.86 | 0.945 | – | ≥ 1 | – | –
S. aureus DSM 20231 [3], partner 2.5 µg/mL | 0.96 | 0.957 | – | 0.967 | – | –
S. aureus DSM 20231 [3], partner 5 µg/mL | 0.67 | 0.725 | – | 0.681 | – | –
S. aureus Newman [2], partner 1.25 µg/mL | 0.907 | 0.902 | – | 0.918 | – | –
S. aureus Newman [2], partner 2.5 µg/mL | 0.785 | 0.824 | – | 0.845 | – | –
S. aureus Newman [2], partner 5 µg/mL | 0.476 | 0.44 | – | 0.417 | – | –
S. pneumoniae D39V [4], partner 0.325 µg/mL | – | – | 0.977 | – | 0.975 | 0.792
S. pneumoniae D39V [4], partner 0.65 µg/mL | – | – | 0.926 | – | 0.866 | 0.697

one replicate
Settings | fitness
S. aureus DSM 20231 [3], first compound 3.12 µg/mL, partner 1.25 µg/mL | 0.946
S. aureus DSM 20231 [3], first compound 3.12 µg/mL, partner 2.5 µg/mL | 0.844
S. aureus DSM 20231 [3], first compound 3.12 µg/mL, partner 5 µg/mL | 0.482
S. aureus DSM 20231 [3], first compound 6.24 µg/mL, partner 1.25 µg/mL | 0.756
S. aureus DSM 20231 [3], first compound 6.24 µg/mL, partner 2.5 µg/mL | 0.632
S. aureus DSM 20231 [3], first compound 6.24 µg/mL, partner 5 µg/mL | 0.248
S. pneumoniae D39V [4], first compound 1 µg/mL, partner 1.3 µg/mL | 0.394
S. pneumoniae D39V [4], first compound 2 µg/mL, partner 1.3 µg/mL | 0.34
S. pneumoniae D39V [4], first compound 4 µg/mL, partner 1.3 µg/mL | 0.294

Settings | Bliss interaction score
B. subtilis 168 [5] | -0.0765
S. aureus DSM 20231 [7] | 0.0671
S. aureus Newman [6] | 0.104
S. pneumoniae D39V [8] | -0.117
